Data from paper PMC12505902, “Inhibitors of trehalose-6-phosphate synthase activity in fungal pathogens compromise thermal tolerance pathways” (mBio, 2025).
Where two headings read alike, the source gives them in different places.

Test system: C. glabrata (CBS138)
Assay: MIC dose-response assay in YPD
Format: cell-based
Protocol: Fig 4 4456dh inhibits the growth of Candida and Cryptococcus species. […] 4456dh was administered at the concentrations indicated. Cultures were grown in YPD at the listed temperatures for 48 hours for Candida species and 72 hours for Cryptococcus species. Experimental temperatures reflect the temperatures at which the fungi experience heat stress. Left: relative growth of treated samples was calculated by averaging technical triplicates and normalizing the OD600 of each treated well to the average OD600 of the untreated WT controls, after the absorbance due to the compound was subtracted. The MIC80 values, calculated based on the OD600 values, are indicated in the white text on each heat map. Right: representative spot assays show the ability of cells to grow after exposure to 4456dh and indicate fungicidal activity of 4456dh. […]
Furthermore, there was significant fungicidal activity of 4456dh on C. glabrata in concentrations starting at approximately 7.8 µM (Fig. 4B).
77 and 5 mM imidazole. The protein was eluted with increasing amounts of imidazole in the wash
78 buffer. The fractions containing 6xHis-CnTps1 were pooled, reduced to 5 mL and purified further
79 using S200 size exclusion column chromatography (HiLoad 26/600 Superdex 200pg, Cytiva) […]
82 determined by SDS-PAGE analysis, were pooled and concentrated to 1 mg/mL for downstream […]
93 The data were acquired with MO.Control 1.5.3 (NanoTemper Technologies GmbH). Recorded
94 data were analyzed with MO.Affinity Analysis 2.2.7 (NanoTemper Technologies GmbH). […]
100 2X Glo-melt dye. Thermal denaturation was measured using an RT-PCR thermocycler (BioRad) […]
102 determined by identifying the inflection point of the derivative data. […]
104 The catalytic activity of C. albicans Tps1 and C. neoformans Tps1 was measured via a continuous […]
110 bottomed 96-well microtiter plates and the decrease in absorbance at 340 nm during the initial
111 reaction rate was recorded using a plate reader (Tecan). The decrease in absorbance was
112 analyzed for the first 200s of the kinetic reaction. […]

Cn1cc(-c2csc(NC(=O)Cc3ccccn3)n2)cn1 [Compound 4456dh]
MIC80 (30°C, YPD): no MIC or fungicidal activity was detected | MIC80 (Nakaseomyces glabratus, CBS138, 42°C, YPD, 48 hours, read-out: MIC80): 7.8 µM | MIC80 (Nakaseomyces glabratus, CBS138, Supplemental Table 5, This publication, read-out: MIC80): 3.1 µg/mL
